Reference: the NIST ThermoML archive (doi:10.1016/j.fluid.2014.03.003)
± gives the expanded uncertainty stated by the source.

Settings: 293.15 K; Liquid; Closed cell (Static) method
In the case of `c1ccccc1` [benzene], the “vapor or sublimation pressure” value is reported as 9.983 ± 0.027 kPa.

Same assay, conditions: 298.15 K; Liquid; Closed cell (Static) method
In the case of `c1ccccc1` [benzene], the “vapor or sublimation pressure” value is reported as 12.64 ± 0.037 kPa.

Same assay, conditions: 303.15 K; Liquid; Closed cell (Static) method
With `Cc1ccc(C)cc1` [1,4-dimethylbenzene] the “vapor or sublimation pressure” value was 1.562 ± 0.031 kPa.
With `c1ccccc1` [benzene] the “vapor or sublimation pressure” value was 15.85 ± 0.035 kPa.
For `Cc1ccccc1` [toluene], the “vapor or sublimation pressure” value was 4.905 ± 0.022 kPa.

Same assay, conditions: 308.15 K; Liquid; Closed cell (Static) method
With `Cc1cccc(C)c1` [1,3-dimethylbenzene] the “vapor or sublimation pressure” value was 2.631 ± 0.045 kPa.
For `c1ccccc1` [benzene], the “vapor or sublimation pressure” value was 19.71 ± 0.05 kPa.
In the case of `CCc1ccccc1` [ethylbenzene], the “vapor or sublimation pressure” value is reported as 2.223 ± 0.019 kPa.
With `Cc1ccccc1` [toluene] the “vapor or sublimation pressure” value was 6.257 ± 0.024 kPa.

Same assay, conditions: 313.15 K; Liquid; Closed cell (Static) method
For `Cc1ccccc1C` [1,2-dimethylbenzene], the “vapor or sublimation pressure” value was 2.052 ± 0.035 kPa.
For `Cc1cccc(C)c1` [1,3-dimethylbenzene], the “vapor or sublimation pressure” value was 3.524 ± 0.028 kPa.
With `Cc1ccc(C)cc1` [1,4-dimethylbenzene] the “vapor or sublimation pressure” value was 2.49 ± 0.039 kPa.
For `c1ccccc1` [benzene], the “vapor or sublimation pressure” value was 24.3 ± 0.052 kPa.
With `Cc1ccccc1` [toluene] the “vapor or sublimation pressure” value was 7.963 ± 0.026 kPa.

Same assay, conditions: 318.15 K; Liquid; Closed cell (Static) method
For `Cc1cccc(C)c1` [1,3-dimethylbenzene], the “vapor or sublimation pressure” value was 4.372 ± 0.036 kPa.
For `c1ccccc1` [benzene], the “vapor or sublimation pressure” value was 29.73 ± 0.063 kPa.
For `CCc1ccccc1` [ethylbenzene], the “vapor or sublimation pressure” value was 3.746 ± 0.041 kPa.
With `Cc1ccccc1` [toluene] the “vapor or sublimation pressure” value was 9.959 ± 0.034 kPa.

Same assay, conditions: 323.15 K; Liquid; Closed cell (Static) method
With `Cc1ccccc1C` [1,2-dimethylbenzene] the “vapor or sublimation pressure” value was 3.456 ± 0.022 kPa.
For `Cc1cccc(C)c1` [1,3-dimethylbenzene], the “vapor or sublimation pressure” value was 5.37 ± 0.045 kPa.
For `Cc1ccc(C)cc1` [1,4-dimethylbenzene], the “vapor or sublimation pressure” value was 4.422 ± 0.042 kPa.
In the case of `c1ccccc1` [benzene], the “vapor or sublimation pressure” value is reported as 36.09 ± 0.069 kPa.
For `CCc1ccccc1` [ethylbenzene], the “vapor or sublimation pressure” value was 4.712 ± 0.029 kPa.
With `Cc1ccccc1` [toluene] the “vapor or sublimation pressure” value was 12.31 ± 0.032 kPa.

Same assay, conditions: 328.15 K; Liquid; Closed cell (Static) method
With `Cc1cccc(C)c1` [1,3-dimethylbenzene] the “vapor or sublimation pressure” value was 6.496 ± 0.037 kPa.
For `c1ccccc1` [benzene], the “vapor or sublimation pressure” value was 43.51 ± 0.082 kPa.
In the case of `CCc1ccccc1` [ethylbenzene], the “vapor or sublimation pressure” value is reported as 5.967 ± 0.03 kPa.
In the case of `Cc1ccccc1` [toluene], the “vapor or sublimation pressure” value is reported as 15.14 ± 0.041 kPa.

Same assay, conditions: 333.15 K; Liquid; Closed cell (Static) method
With `Cc1ccccc1C` [1,2-dimethylbenzene] the “vapor or sublimation pressure” value was 5.613 ± 0.047 kPa.
In the case of `Cc1cccc(C)c1` [1,3-dimethylbenzene], the “vapor or sublimation pressure” value is reported as 7.75 ± 0.038 kPa.
For `Cc1ccc(C)cc1` [1,4-dimethylbenzene], the “vapor or sublimation pressure” value was 6.997 ± 0.048 kPa.
With `c1ccccc1` [benzene] the “vapor or sublimation pressure” value was 52.11 ± 0.11 kPa.
For `CCc1ccccc1` [ethylbenzene], the “vapor or sublimation pressure” value was 7.448 ± 0.031 kPa.
With `Cc1ccccc1` [toluene] the “vapor or sublimation pressure” value was 18.86 ± 0.057 kPa.

Same assay, conditions: 338.15 K; Liquid; Closed cell (Static) method
In the case of `Cc1cccc(C)c1` [1,3-dimethylbenzene], the “vapor or sublimation pressure” value is reported as 9.305 ± 0.035 kPa.
With `c1ccccc1` [benzene] the “vapor or sublimation pressure” value was 62.01 ± 0.11 kPa.
In the case of `CCc1ccccc1` [ethylbenzene], the “vapor or sublimation pressure” value is reported as 9.251 ± 0.028 kPa.
For `Cc1ccccc1` [toluene], the “vapor or sublimation pressure” value was 22.61 ± 0.05 kPa.

Same assay, conditions: 343.15 K; Liquid; Closed cell (Static) method
With `Cc1ccccc1C` [1,2-dimethylbenzene] the “vapor or sublimation pressure” value was 8.542 ± 0.051 kPa.
In the case of `Cc1cccc(C)c1` [1,3-dimethylbenzene], the “vapor or sublimation pressure” value is reported as 11.12 ± 0.036 kPa.
In the case of `Cc1ccc(C)cc1` [1,4-dimethylbenzene], the “vapor or sublimation pressure” value is reported as 10.63 ± 0.057 kPa.
For `c1ccccc1` [benzene], the “vapor or sublimation pressure” value was 73.35 ± 0.13 kPa.
In the case of `CCc1ccccc1` [ethylbenzene], the “vapor or sublimation pressure” value is reported as 11.41 ± 0.032 kPa.
With `Cc1ccccc1` [toluene] the “vapor or sublimation pressure” value was 27.31 ± 0.059 kPa.

Same assay, conditions: 348.15 K; Liquid; Closed cell (Static) method
In the case of `c1ccccc1` [benzene], the “vapor or sublimation pressure” value is reported as 86.27 ± 0.15 kPa.
With `CCc1ccccc1` [ethylbenzene] the “vapor or sublimation pressure” value was 13.79 ± 0.04 kPa.
For `Cc1ccccc1` [toluene], the “vapor or sublimation pressure” value was 32.72 ± 0.071 kPa.

Same assay, conditions: 353.15 K; Liquid; Closed cell (Static) method
In the case of `Cc1ccccc1C` [1,2-dimethylbenzene], the “vapor or sublimation pressure” value is reported as 12.73 ± 0.04 kPa.
For `Cc1cccc(C)c1` [1,3-dimethylbenzene], the “vapor or sublimation pressure” value was 15.97 ± 0.048 kPa.
In the case of `Cc1ccc(C)cc1` [1,4-dimethylbenzene], the “vapor or sublimation pressure” value is reported as 15.72 ± 0.085 kPa.
In the case of `c1ccccc1` [benzene], the “vapor or sublimation pressure” value is reported as 100.91 ± 0.17 kPa.

Same assay, conditions: 358.15 K; Liquid; Closed cell (Static) method
With `Cc1ccc(C)cc1` [1,4-dimethylbenzene] the “vapor or sublimation pressure” value was 19.04 ± 0.085 kPa.
With `CCc1ccccc1` [ethylbenzene] the “vapor or sublimation pressure” value was 20.42 ± 0.06 kPa.
With `Cc1ccccc1` [toluene] the “vapor or sublimation pressure” value was 46.17 ± 0.091 kPa.

Same assay, conditions: 363.15 K; Liquid; Closed cell (Static) method
In the case of `Cc1ccccc1C` [1,2-dimethylbenzene], the “vapor or sublimation pressure” value is reported as 18.65 ± 0.057 kPa.
In the case of `Cc1cccc(C)c1` [1,3-dimethylbenzene], the “vapor or sublimation pressure” value is reported as 22.76 ± 0.058 kPa.
In the case of `Cc1ccc(C)cc1` [1,4-dimethylbenzene], the “vapor or sublimation pressure” value is reported as 22.8 ± 0.091 kPa.

Same assay, conditions: 368.15 K; Liquid; Closed cell (Static) method
With `CCc1ccccc1` [ethylbenzene] the “vapor or sublimation pressure” value was 29.11 ± 0.073 kPa.
With `Cc1ccccc1` [toluene] the “vapor or sublimation pressure” value was 63.84 ± 0.12 kPa.

Same assay, conditions: 373.15 K; Liquid; Closed cell (Static) method
In the case of `Cc1ccccc1C` [1,2-dimethylbenzene], the “vapor or sublimation pressure” value is reported as 26.73 ± 0.076 kPa.
For `Cc1cccc(C)c1` [1,3-dimethylbenzene], the “vapor or sublimation pressure” value was 32.06 ± 0.079 kPa.
In the case of `Cc1ccc(C)cc1` [1,4-dimethylbenzene], the “vapor or sublimation pressure” value is reported as 32.04 ± 0.12 kPa.

Same assay, conditions: 378.15 K; Liquid; Closed cell (Static) method
For `Cc1ccccc1C` [1,2-dimethylbenzene], the “vapor or sublimation pressure” value was 31.66 ± 0.091 kPa.
With `Cc1ccccc1` [toluene] the “vapor or sublimation pressure” value was 86.25 ± 0.16 kPa.

Same assay, conditions: 383.15 K; Liquid; Closed cell (Static) method
In the case of `Cc1ccccc1C` [1,2-dimethylbenzene], the “vapor or sublimation pressure” value is reported as 37.35 ± 0.1 kPa.
In the case of `Cc1cccc(C)c1` [1,3-dimethylbenzene], the “vapor or sublimation pressure” value is reported as 44.23 ± 0.11 kPa.
With `Cc1ccc(C)cc1` [1,4-dimethylbenzene] the “vapor or sublimation pressure” value was 44.56 ± 0.16 kPa.
In the case of `CCc1ccccc1` [ethylbenzene], the “vapor or sublimation pressure” value is reported as 47.75 ± 0.1 kPa.

Same assay, conditions: 388.15 K; Liquid; Closed cell (Static) method
In the case of `Cc1ccccc1C` [1,2-dimethylbenzene], the “vapor or sublimation pressure” value is reported as 43.63 ± 0.12 kPa.

Same assay, conditions: 393.15 K; Liquid; Closed cell (Static) method
For `Cc1ccccc1C` [1,2-dimethylbenzene], the “vapor or sublimation pressure” value was 51.01 ± 0.14 kPa.
For `Cc1ccc(C)cc1` [1,4-dimethylbenzene], the “vapor or sublimation pressure” value was 60.79 ± 0.22 kPa.

Same assay, conditions: 403.15 K; Liquid; Closed cell (Static) method
In the case of `Cc1ccccc1C` [1,2-dimethylbenzene], the “vapor or sublimation pressure” value is reported as 68.42 ± 0.18 kPa.
For `Cc1cccc(C)c1` [1,3-dimethylbenzene], the “vapor or sublimation pressure” value was 80.2 ± 0.16 kPa.
In the case of `Cc1ccc(C)cc1` [1,4-dimethylbenzene], the “vapor or sublimation pressure” value is reported as 80.87 ± 0.28 kPa.
For `CCc1ccccc1` [ethylbenzene], the “vapor or sublimation pressure” value was 85.64 ± 0.17 kPa.

Same assay, conditions: 408.15 K; Liquid; Closed cell (Static) method
With `Cc1ccc(C)cc1` [1,4-dimethylbenzene] the “vapor or sublimation pressure” value was 92.43 ± 0.32 kPa.

Same assay, conditions: 413.15 K; Liquid; Closed cell (Static) method
For `Cc1ccccc1C` [1,2-dimethylbenzene], the “vapor or sublimation pressure” value was 90.18 ± 0.24 kPa.
